# In PubChem BioAssay AID1963836 (Molecular Pharmacology Branch, DTP, NCI, 2024):
# Test system: 857933-349-R-J2-PDC complex spheroid viability
# Experiment: Anticancer human tumor 857933-349-R-J2-PDC patient-derived colon adenocarcinoma cell line growth inhibition [POLQ]
# Conditions: for IC50: curve of first compound; for viability, T/C: stronger effect = lower value
# In short: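 PDC + HUVEC + MSC complex spheroids; POLQ inhibitors ± partner drugs; top conc. at/near clinical Cmax, else 10 microM (SN-38 1 microM), half-log dilutions; 37 degrees C, 5% CO2.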
# [1] = second compound 0.0316 µM, first compound 0.0316 µM
# [2] = second compound 0.0316 µM, first compound 0.1 µM
# [3] = second compound 0.0316 µM, first compound 0.316 µM
# [4] = second compound 0.0316 µM, first compound 1 µM
# [5] = second compound 0.0316 µM, first compound 3.16 µM
# [6] = second compound 0.0316 µM, first compound 10 µM
# [7] = second compound 0.1 µM, first compound 0.0316 µM
# [8] = second compound 0.1 µM, first compound 0.1 µM
# [9] = second compound 0.1 µM, first compound 0.316 µM
# [10] = second compound 0.1 µM, first compound 1 µM
# [11] = second compound 0.1 µM, first compound 3.16 µM
# [12] = second compound 0.1 µM, first compound 10 µM
# [13] = second compound 0.316 µM, first compound 0.0316 µM
# [14] = second compound 0.316 µM, first compound 0.1 µM
# [15] = second compound 0.316 µM, first compound 0.316 µM
# [16] = second compound 0.316 µM, first compound 1 µM
# [17] = second compound 0.316 µM, first compound 3.16 µM
# [18] = second compound 0.316 µM, first compound 10 µM
# [19] = second compound 1 µM, first compound 0.0316 µM
# [20] = second compound 1 µM, first compound 0.1 µM
# [21] = second compound 1 µM, first compound 0.316 µM
# [22] = second compound 1 µM, first compound 1 µM
# [23] = second compound 1 µM, first compound 3.16 µM
# [24] = second compound 1 µM, first compound 10 µM
# [25] = second compound 3.16 µM, first compound 0.0316 µM
# [26] = second compound 3.16 µM, first compound 0.1 µM
# [27] = second compound 3.16 µM, first compound 0.316 µM
# [28] = second compound 3.16 µM, first compound 1 µM
# [29] = second compound 3.16 µM, first compound 3.16 µM
# [30] = second compound 3.16 µM, first compound 10 µM
# [31] = second compound 10 µM, first compound 0.0316 µM
# [32] = second compound 10 µM, first compound 0.1 µM
# [33] = second compound 10 µM, first compound 0.316 µM
# [34] = second compound 10 µM, first compound 1 µM
# [35] = second compound 10 µM, first compound 3.16 µM
# [36] = second compound 10 µM, first compound 10 µM
# 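Also: spheroids exposed to compounds for seven days before readout.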
smiles,measurement,setting,value
C=CC(=O)N1CCN(c2nc(=O)n(-c3c(C)ccnc3C(C)C)c3nc(-c4c(O)cccc4F)c(F)cc23)C(C)C1 (stereo unspecified) + Cc1cccc(N(C)C(=O)C2C(O)CCN2c2nc(C)cc(C(F)(F)F)c2C#N)c1,IC50,second compound 0.0316 µM,> 10 µM
same,IC50,second compound 0.1 µM,> 10 µM
same,IC50,second compound 0.316 µM,> 10 µM
same,IC50,second compound 1 µM,> 10 µM
same,IC50,second compound 3.16 µM,> 10 µM
same,IC50,second compound 10 µM,> 10 µM
same,"viability, T/C",[1],101%
same,"viability, T/C",[2],104%
same,"viability, T/C",[3],94.8%
same,"viability, T/C",[4],113%
same,"viability, T/C",[5],97.2%
same,"viability, T/C",[6],80.5%
same,"viability, T/C",[7],114%
same,"viability, T/C",[8],106%
same,"viability, T/C",[9],73%
same,"viability, T/C",[10],112%
same,"viability, T/C",[11],98.9%
same,"viability, T/C",[12],85.3%
same,"viability, T/C",[13],91.1%
same,"viability, T/C",[14],100%
same,"viability, T/C",[15],109%
same,"viability, T/C",[16],87.4%
same,"viability, T/C",[17],84.4%
same,"viability, T/C",[18],70%
same,"viability, T/C",[19],95.3%
same,"viability, T/C",[20],95.2%
same,"viability, T/C",[21],89.3%
same,"viability, T/C",[22],101%
same,"viability, T/C",[23],113%
same,"viability, T/C",[24],97.9%
same,"viability, T/C",[25],76.5%
same,"viability, T/C",[26],106%
same,"viability, T/C",[27],109%
same,"viability, T/C",[28],84%
same,"viability, T/C",[29],99.8%
same,"viability, T/C",[30],95.2%
same,"viability, T/C",[31],88.7%
same,"viability, T/C",[32],84.2%
same,"viability, T/C",[33],101%
same,"viability, T/C",[34],85.9%
same,"viability, T/C",[35],91.8%
same,"viability, T/C",[36],77.7%
CC(C)n1c(=O)n(C)c2cnc3cc(F)c(-c4ccc(OCCCN5CCCCC5)nc4)cc3c21 + Cc1cccc(N(C)C(=O)C2C(O)CCN2c2nc(C)cc(C(F)(F)F)c2C#N)c1,IC50,second compound 0.0316 µM,> 10 µM
same,IC50,second compound 0.1 µM,> 10 µM
same,IC50,second compound 0.316 µM,> 10 µM
same,IC50,second compound 1 µM,> 10 µM
same,IC50,second compound 3.16 µM,> 10 µM
same,IC50,second compound 10 µM,> 10 µM
same,"viability, T/C",[1],106%
same,"viability, T/C",[2],78.1%
same,"viability, T/C",[3],90.2%
same,"viability, T/C",[4],113%
same,"viability, T/C",[5],107%
same,"viability, T/C",[6],69.8%
same,"viability, T/C",[7],97.7%
same,"viability, T/C",[8],107%
same,"viability, T/C",[9],98.9%
same,"viability, T/C",[10],105%
same,"viability, T/C",[11],87%
same,"viability, T/C",[12],68.5%
same,"viability, T/C",[13],97.2%
same,"viability, T/C",[14],94.3%
same,"viability, T/C",[15],104%
same,"viability, T/C",[16],94.9%
same,"viability, T/C",[17],105%
same,"viability, T/C",[18],88%
same,"viability, T/C",[19],80.7%
same,"viability, T/C",[20],73.8%
same,"viability, T/C",[21],92.6%
same,"viability, T/C",[22],110%
same,"viability, T/C",[23],114%
same,"viability, T/C",[24],66.9%
same,"viability, T/C",[25],83.6%
same,"viability, T/C",[26],89.2%
same,"viability, T/C",[27],116%
same,"viability, T/C",[28],79.3%
same,"viability, T/C",[29],102%
same,"viability, T/C",[30],75%
same,"viability, T/C",[31],73.2%
same,"viability, T/C",[32],65.9%
same,"viability, T/C",[33],87.9%
same,"viability, T/C",[34],97.3%
same,"viability, T/C",[35],106%
same,"viability, T/C",[36],64.5%
CC1COCCN1c1cc(C2(S(C)(=N)=O)CC2)nc(-c2ccnc3[nH]ccc23)n1 (stereo unspecified) + Cc1cccc(N(C)C(=O)C2C(O)CCN2c2nc(C)cc(C(F)(F)F)c2C#N)c1,IC50,second compound 0.0316 µM,3.21 µM
same,IC50,second compound 0.1 µM,3.88 µM
same,IC50,second compound 0.316 µM,2.71 µM
same,IC50,second compound 1 µM,4.38 µM
same,IC50,second compound 3.16 µM,5.54 µM
same,IC50,second compound 10 µM,4.77 µM
same,"viability, T/C",[1],97.9%
same,"viability, T/C",[2],105%
same,"viability, T/C",[3],95%
same,"viability, T/C",[4],78.2%
same,"viability, T/C",[5],50.4%
same,"viability, T/C",[6],36.4%
same,"viability, T/C",[7],88.6%
same,"viability, T/C",[8],112%
same,"viability, T/C",[9],87.4%
same,"viability, T/C",[10],76.3%
same,"viability, T/C",[11],55.2%
same,"viability, T/C",[12],32.5%
same,"viability, T/C",[13],75%
same,"viability, T/C",[14],81.5%
same,"viability, T/C",[15],101%
same,"viability, T/C",[16],69.8%
same,"viability, T/C",[17],48.7%
same,"viability, T/C",[18],35.4%
same,"viability, T/C",[19],92.9%
same,"viability, T/C",[20],91.7%
same,"viability, T/C",[21],102%
same,"viability, T/C",[22],74.8%
same,"viability, T/C",[23],57.4%
same,"viability, T/C",[24],36.6%
same,"viability, T/C",[25],95.5%
same,"viability, T/C",[26],98.2%
same,"viability, T/C",[27],84.4%
same,"viability, T/C",[28],78.8%
same,"viability, T/C",[29],52.3%
same,"viability, T/C",[30],45.8%
same,"viability, T/C",[31],80.1%
same,"viability, T/C",[32],84.7%
same,"viability, T/C",[33],88.6%
same,"viability, T/C",[34],72.5%
same,"viability, T/C",[35],57.4%
same,"viability, T/C",[36],38.2%
